In paper PMC7026589, “Sensitive CometChip assay for screening potentially carcinogenic DNA adducts by trapping DNA repair intermediates” (Nucleic Acids Research, 2019):
Where two headings read alike, the source gives them in different places.

Assays:
HepaRG™ cells = tested on: HepaRG™ cells
Description: Cryopreserved HepaRG™ (HPRGC10), a terminally differentiated hepatic cell line, was purchased from ThermoFisher Scientific (Waltham, MA). HepaRG™ was thawed and cultured according to manufacturer's instructions. Briefly, the general purpose working medium was WEM supplemented with 1X GlutaMAX™ and 1X HepaRG™ Thaw, Plate, & General Purpose Medium Supplement. The metabolism working medium was WEM supplemented with 1X GlutaMAX™ and HepaRG™ Maintenance/Metabolism Medium Supplement. HepaRG™ cells were thawed in the general purpose working medium and plated in a 96-well plate coated with collagen I at 100 000 cells/well. One day after plating, the general purpose working medium was changed to the metabolism working medium. The metabolism working medium was renewed on day 4 and day 6 after plating. On day 7, the cells were treated in the metabolism working medium.
(§1) To load cells into microwells, ∼2000–200 000 cells in suspension were placed into each macrowell, and the chip was incubated at 37°C in the presence of 5% CO2 for 15 min. Cell were loaded into microwells by gravity, and excess cells were then washed off with PBS by shear force. The chip was covered with a layer of overlay agarose (1% w/v low-melting point agarose solution in PBS, kept molten at 43°C until use). For complete gelation of the overlay agarose, the chip was kept at room temperature for two minutes followed by 2 min at 4°C.
(§2) The alkaline comet assay was performed as previously ([15],[79]). Sodium chloride (NaCl, 7581), disodium EDTA (Na2EDTA, 4931), and sodium hydroxide pellets (NaOH, 7708) were purchased from VWR, Radnor, PA. Trizma® base (T1503), Trizma® HCl (T5941) and Triton X-100 (X-100) were obtained from MilliporeSigma, St. Louis, MO. 10 000× SYBR™ Gold nucleic acid gel stain was obtained from ThermoFisher Scientific, Waltham, MA.
(§3) The alkaline lysis buffer (pH ∼ 10) was a solution of 2.5 M NaCl, 100 mM Na2EDTA, 10 mM Trizma® base, and 1% (v/v) Triton X-100 dissolved in deionized H2O (dI H2O). […] The neutralization buffer (pH ∼ 7.5) was prepared by dissolving Trizma® HCl in distilled H2O to a final concentration of 0.4 M.
(§4) Cells encapsulated in CometChip were lysed in the alkaline lysis buffer overnight at 4°C. The nuclei were unwound in the alkaline unwinding buffer for 40 min at 4°C, and the DNA was electrophoresed in the same buffer at the same temperature for 30 min at 1 V/cm and ∼300 mA. The CometChip was then washed three times in neutralization buffer by submerging for 5 min each time.
(§5) The DNA on CometChip was stained for 15 min at room temperature with 1× of SYBR™ Gold diluted in PBS, protected from light. Fluorescent images of the comets were captured at 40× magnification using an epifluorescence microscope (Nikon Eclipse 80i, Nikon Instruments, Inc., Melville, NY, USA) with a 480 nm excitation filter. Image acquisition was achieved by automatic scanning using a motorized XY stage. Comet images were automatically analyzed using Guicometanalyzer, a custom software developed in MATLAB (The MathWorks Inc., Natick, MA, USA) as previously described ([15]). For each condition, 100 comets or more were analysed. Outputs from Guicometanalyzer were processed and imported to a spreadsheet (Microsoft Excel, Microsoft Office Suite 2016) using Comet2Excel, an in-house software developed in Python (Python Software Foundation, Python version 2.7.10). Software is freely available upon request.
For this experiment, the comets were analysed using Trevigen® Comet Analysis Software.
(§6) A vehicle control condition was included by diluting DMSO in cell culture medium to get a final concentration of 0.5%. Cells were incubated with the test compound for 24 h at 37°C in the presence of 5% CO2.
HepaRG™ were incubated with the test compound for 24 h at 37°C in the presence of 5% CO2. A vehicle control (1% DMSO) was included.

CYP1A2 [1] = target: T1, CYP1A2 (Homo sapiens, UniProt P05177); format: cell-based; parameters: endogenous in cells; settings: HepaRG; B[a]P 24 h
T1 sequence (P05177 whole entry): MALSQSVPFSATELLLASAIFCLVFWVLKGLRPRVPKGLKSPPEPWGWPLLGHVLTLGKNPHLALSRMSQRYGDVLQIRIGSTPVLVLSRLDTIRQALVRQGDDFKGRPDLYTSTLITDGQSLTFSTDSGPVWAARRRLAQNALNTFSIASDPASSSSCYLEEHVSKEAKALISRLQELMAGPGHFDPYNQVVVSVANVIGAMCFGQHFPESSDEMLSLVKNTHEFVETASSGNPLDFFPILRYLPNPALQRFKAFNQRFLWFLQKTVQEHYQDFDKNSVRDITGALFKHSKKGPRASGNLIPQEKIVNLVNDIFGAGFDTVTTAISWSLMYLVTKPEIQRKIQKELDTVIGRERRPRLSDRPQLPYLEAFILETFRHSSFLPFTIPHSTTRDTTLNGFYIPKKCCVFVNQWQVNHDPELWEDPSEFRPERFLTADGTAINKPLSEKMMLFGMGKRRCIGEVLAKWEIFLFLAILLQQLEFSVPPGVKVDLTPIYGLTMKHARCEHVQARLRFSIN
Protocol: (§7) The CYP450-Glo™ CYP3A4 assay with luciferin-IPA (V9001) and the CYP450-Glo™ CYP1A2 assay with luciferin-1A2 (V8421) were purchased from Promega, Madison, WI. The activity levels of CYP3A4 and CYP1A2 in cells were measured according to the manufacturer's protocol for non-lytic cell-based assays. Luminescent signals were recorded using a SpectraMax M2e microplate reader (Molecular Devices, Sunnyvale, CA, USA). Control wells with no cells were included to obtain background luminescence. The net signal for each sample was obtained by subtracting the background luminescence value.
(§8) CYP3A4 or CYP1A2 activity per cell can be obtained by normalizing CYP450-Glo™ values with cell numbers. After a sample was analyzed for CYP3A4 or CYP1A2 activity, the CTG® assay was performed to obtain an estimate of the number of viable cells in the sample. The result from CYP450-Glo™ was then divided by the CTG® value to obtain the average CYP3A4 or CYP1A2 activity per cell.

CYP1A2 [2] = target: T1, CYP1A2; format: cell-based; parameters: endogenous in cells; host or cells: HepG2; settings: HepG2; B[a]P 24 h
Protocol: as §7, §8

Xpa−/− mouse hepatocytes = settings: presence of HU/AraC, 24 h, compared with WT
Protocol: as §4
as §5, with “Outputs from Guicometanalyzer were processed and imported to a spreadsheet (Microsoft Excel, Microsoft Office Suite 2016) using Comet2Excel, an in-house software developed in Python (Python Software Foundation, Python version 2.7.10). Software is freely available upon request.” left out
(§9) Primary mouse hepatocytes were obtained from 10 to 14 weeks old C57Bl6 mice using a standard two-step collagenase liver perfusion procedure with minor changes ([80],[81]). […] Cell viability and cell number were analyzed using an automated Trypan Blue exclusion system [Vi-CELL™ cell counter (Beckman Coulter Life Sciences, Brea, CA)]. […]

[3] = tested on: primary mouse hepatocytes; settings: WT primary mouse hepatocytes; absence of HU/AraC; 24 h
Protocol: as §4
as §5, with “Outputs from Guicometanalyzer were processed and imported to a spreadsheet (Microsoft Excel, Microsoft Office Suite 2016) using Comet2Excel, an in-house software developed in Python (Python Software Foundation, Python version 2.7.10). Software is freely available upon request.” left out
as §9

CYP1A2 [4] = target: T1, CYP1A2; format: cell-based; settings: human
Protocol: as §7, §8

CYP1A2 [5] = target: T1, CYP1A2; format: cell-based; parameters: The activity levels of CYP3A4 and CYP1A2 in cells were measured according to the manufacturer's protocol for non-lytic cell-based assays; endogenous in cells; host or cells: HepG2; settings: human
Protocol: as §7, §8

HepG2 cells = tested on: HepG2 cells
Protocol: HepG2 (ATCC® HB-8065™), an immortalized cell line derived from human hepatocellular carcinoma, was obtained from the American Type Culture Collection (Manassas, VA). HepG2 cells were cultured in high-glucose DMEM supplemented with 10% FBS, 1× GlutaMAX™, and 100 U/ml Pen-Strep. For chemical exposures, exponentially growing cells were plated in a tissue cultured treated 96-well plate two days before treatment.
as §1, §2, §3, §4, §5, §6
HepG2 were incubated with the test compound for 24 h at 37°C in the presence of 5% CO2. A vehicle control (0.07% sodium bicarbonate) was included.
Cells embedded in CometChip were placed on ice and irradiated with 0, 0.9, 1.8, 3.6, 5.4, 7.2 and 9 Gy of gamma rays from a Cs 137 radiation source with a dose rate of 0.9 Gy/min. The irradiated cells were submerged into lysis buffer overnight and the alkaline CometChip assay performed as described above.

Structure (SMILES)	Genotoxicity Alkaline CometChip HepaRG (+ HU + AraC) +/− (HepaRG™ cells)	Genotoxicity Alkaline CometChip HepaRG +/− (HepaRG™ cells)	CYP1A2 activity level (induction) (CYP1A2 [1])	CYP1A2 activity level (induction) (CYP1A2 [2])	SSBs (Xpa−/− mouse hepatocytes)	SSBs [3]	B[a]P induction of CYP1A2 in the presence of ANF (CYP1A2 [4])	DNA damage by inhibitor alone (HepaRG™ cells)	Level of B[a]P-induced SSBs in the presence of ANF (HepaRG™ cells)	DNA damage by inhibitor alone (TK6 cells)	B[a]P induction of CYP1A2 in the presence of ANF (CYP1A2 [5])	DNA damage by inhibitor alone (HepG2 cells)	Level of B[a]P-induced SSBs in the presence of ANF (HepG2 cells)
c1ccc2c(c1)cc1ccc3cccc4ccc2c1c34 [B[a]P, Benzo[a]pyrene]	+	−	induced in a dose-dependent manner	induced in a dose-dependent manner	not significantly	significant, but relatively small, increase in SSBs							
O=c1cc(-c2ccccc2)oc2c1ccc1ccccc12 [ANF, α-Naphthoflavone]							induction of CYP1A2 is prevented	does not induce DNA damage	near background levels	does not induce DNA damage	induction of CYP1A2 is prevented	does not induce DNA damage	near background levels
